Data set [1] is described as follows: in vitro. The conditions noted are these: human.
Description: (§1) In addition, the effects on uninfected HFF host cells were assessed. […] The viability of HFF cultures following drug treatments was measured by alamarBlue assay, and the proliferation of T. gondii was quantified by measuring β‐galactosidase activity.
Data set [2] relates to T. gondii β-gal tachyzoites. As to the kind of experiment: T. gondii β-gal tachyzoite proliferation in HFF (β-galactosidase/CPRG assay). The settings on record: for activity at 0.1 µM / activity at 1 µM: read-out: T. gondii β-gal proliferation (%); for T. gondii β-gal proliferation (%): 3 days, relative to 0.1 % DMSO control; for IC50: read-out: IC50 against T. gondii β-gal tachyzoite proliferation.
Description: The compounds presented in this study were screened for biological activity in vitro against T. gondii β‐gal, a transgenic strain that constitutively expresses β‐galactosidase, which is grown in HFF monolayers. In addition, the effects on uninfected HFF host cells were assessed. […] The viability of HFF cultures following drug treatments was measured by alamarBlue assay, and the proliferation of T. gondii was quantified by measuring β‐galactosidase activity.
In vitro culture of parasites and host cells: If not stated otherwise, all tissue culture media were purchased from Gibco‐BRL, and biochemical reagents were from Sigma‐Aldrich). Human foreskin fibroblasts (HFF) were maintained in DMEM containing 10 % fetal calf serum (FCS; Gibco‐BRL) and antibiotics as described earlier.10 T. gondii β‐gal (transgenic T. gondii RH expressing the β‐galactosidase gene from E. coli 69 were maintained in HFF cells, and were isolated and separated from their host cells as described.10
In vitro assessment of drug efficacy: To study the effects of compounds against T. gondii tachyzoites in vitro, 1 mM stock solutions of complexes were prepared in DMSO, and stored at −20 °C. For assessment of drug efficacy against T. gondii tachyzoites, parasites were isolated and assays were performed using HFF as host cells as previously described.10 In short, 5×10^3 HFF cells per well were grown to confluence in a 96‐well plate in phenol‐red free culture medium at 37 °C with 5 % CO2. […] Initial assessments of drug efficacy were done by exposing parasite cultures to 0.1 and 1 μM of each compound for a period of three days, or 0.1 % DMSO was added as a control. […] After three days of incubation at 37 °C, 5 % CO2, medium was removed, and cell cultures were permeabilized by using 90 μL PBS containing 0.05 % Triton‐X‐100. After addition of 10 μL of 5 mM chlorophenol red‐β‐D‐galactopyranoside (CPRG; Roche Diagnostics) dissolved in PBS, the absorption shift was measured at 570 nm wavelength at various time points on a VersaMax multiplate reader (Bucher Biotec, Basel, Switzerland). For the initial screening at 0.1 and 1 μM, the activity, measured as the release of chlorophenol red over time, was calculated as percentage from DMSO control, which represented 100 % of T. gondii β‐gal growth. […] IC50 values were calculated after the logit‐log‐transformation of relative growth and subsequent regression analysis. All calculations were performed using the corresponding software tool contained in the Excel software package (Microsoft).

Data set [3] has as its system human foreskin fibroblasts (HFF).
Description: as §1
Data set [4] has the same test system. As to the kind of experiment: Cytotoxicity on uninfected confluent HFF (alamarBlue assay). The settings on record: 2.5 μM.
Description: as §1

Read-outs that look alike come from different tables or passages of the source.

Regarding `CCN(CC)c1ccc2cc(C(=O)NCCCNC(=O)OC(C)(C)C)c(=O)oc2c1` [Compound 5], in data set [1], the viability at 3 days, 0.1 µM is 118 ± 10% and the viability at 3 days, 1 µM amounted to 88 ± 10%. Besides, in data set [2] (Toxoplasma gondii, 72 h), the activity at 0.1 µM came out at 131 ± 3% and the activity at 1 µM was 118 ± 22%.
`CCN(CC)c1ccc2cc(C(=O)NCCCCNC(=O)OC(C)(C)C)c(=O)oc2c1` [Compound 6]: in data set [1], the viability at 3 days, 0.1 µM came to 98 ± 8% and the viability at 3 days, 1 µM turned out to be 82 ± 4%. Also, in data set [2] (Toxoplasma gondii, 72 h), the activity at 0.1 µM turned out to be 137 ± 9% and the activity at 1 µM was 125 ± 16%.
For the molecule `CC(C)(C)OC(=O)NCCCCNC(=O)c1cc2cc3c4c(c2oc1=O)CCCN4CCC3` [Compound 7], in data set [1], the viability at 3 days, 0.1 µM was 95 ± 9% and the viability at 3 days, 1 µM came out at 96 ± 6%. Besides, in data set [2] (Toxoplasma gondii, 72 h), the activity at 0.1 µM was determined as 132 ± 6% and the activity at 1 µM worked out at 148 ± 5%.
As for `CCN(CC)c1ccc2cc(C(=O)NCCCN)c(=O)oc2c1` [Compound 8], in data set [1], the viability at 3 days, 0.1 µM came out at 96 ± 9% and the viability at 3 days, 1 µM is 85 ± 6%. Also, in data set [2] (Toxoplasma gondii, 72 h), the activity at 0.1 µM was determined as 117 ± 10% and the activity at 1 µM was determined as 114 ± 13%.
The matching figures for `CCN(CC)c1ccc2cc(C(=O)NCCCCN)c(=O)oc2c1` [Compound 9]: 125 ± 20%, 111 ± 4%, 114 ± 4% and 127 ± 4%.
In the case of `NCCCCNC(=O)c1cc2cc3c4c(c2oc1=O)CCCN4CCC3` [Compound 10], in data set [1], the viability at 3 days, 0.1 µM stood at 124 ± 5% and the viability at 3 days, 1 µM was determined as 69 ± 9%. For the same molecule, in data set [2] (Toxoplasma gondii, 72 h), the activity at 0.1 µM came to 101 ± 8% and the activity at 1 µM was 113 ± 7%.
As to `O=C(O)c1cc2cc3c4c(c2oc1=O)CCCN4CCC3` [Dye2‐CO2H, 11‐oxo‐2,3,6,7‐tetrahydro‐1H,5H,11H‐pyrano[2,3‐f]pyrido[3,2,1‐ij]quinoline‐10‐carboxylic acid, reference compound], the “HFF viability (%)” value in data set [3] (0.1 µM) is recorded as “did not affect viability of HFF”. The “HFF viability (%)” value in data set [3] (1 µM) is “did not affect viability of HFF”. In data set [1], the viability at 3 days, 0.1 µM was 106 ± 1% and the viability at 3 days, 1 µM was determined as 105%. In data set [2] (0.1 µM), the “T. gondii β-gal proliferation (%)” value was 69%. In addition, in data set [2] (Toxoplasma gondii, 72 h), the activity at 0.1 µM is 69 ± 11% and the activity at 1 µM came out at 92 ± 6%.
On to `CCc1nc(N)nc(N)c1-c1ccc(Cl)cc1` [pyrimethamine, reference compound], for which the viability at 2.5 µM in data set [1] turned out to be 99%. Further, in data set [2] (Toxoplasma gondii, 72 h), the IC50 was determined as 326 nM.
“[(η6-p-MeC6H4Pri)2Ru2(µ2-SCH2C6H4-p-But)(µ2-SC6H4-p-OH)2]Cl [Compound 19]”: the “HFF viability (%)” value in data set [3] (0.1 µM) came to 62 ± 8%; in data set [3] (1 µM), 56 ± 7%. Further, in data set [3] (2.5 μM), the “HFF viability at 2.5 μM” value is given as 2%. In data set [4], the “reduction in HFF viability” value is on record as 98%. For the same molecule, the entries for the “T. gondii β-gal proliferation (%)” value in data set [2] (0.1 µM) and in data set [2] (1 µM) were 3 ± 1% and 2 ± 0%, respectively. For the same molecule, the IC50 in data set [2] (three days of incubation, in HFF host cells, 6 concentrations 0.03-1 μM) worked out at 115 nM.

Source of the values: paper PMC7586963, “Coumarin‐Tagged Dinuclear Trithiolato‐Bridged Ruthenium(II)⋅Arene Complexes: Photophysical Properties and Antiparasitic Activity” (Chembiochem, 2020).
